assay: gradient 5% acetonitrile 3 min, to 50% in 2 min, to 85% in 15 min, held 3 min, 100 µL/min; details: column: Zorbax Extend-C18 2.1 x 50 mm; eluents: water / acetonitrile, 0.1% formic acid
Summary of the method: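 A Zorbax Extend-C18 column (2.1 × 50 mm, 1.8 μm) run at 100 μL/min with water and acetonitrile, both containing 0.1% formic acid, separated mixtures of ~100 pure standards. The HPLC was coupled to a quadrupole time-of-flight mass spectrometer operated in positive and negative ionization mode, with dead and dwell volumes of 40 μL and 900 μL. Each retention time was taken from a computationally picked adduct peak that was then manually inspected.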

First: CCCCN(C)CCNC(=O)C1c2ccccc2C(=O)N2CCc3cc(OC)c(OC)cc3C12 (centres undefined)
Second: COCCN1C(=O)c2ccccc2C(C(=O)NCCCN2CCCCC2C)C1c1cccs1 (centres undefined)
The RP-LC retention time of the first is higher: 633 s for the first, 624 s for the second.

First: CCC(C(=O)Nc1ccc2c(c1)OCCO2)n1cnc2nc3c(cc2c1=O)CCCC3 (centres undefined)
Second: COc1ccc(CNC(=O)Cn2c(N3CCOCC3)nc(C)cc2=O)cc1
The RP-LC retention time of the first is higher: 763 s for the first, 629 s for the second.

First: O=c1n(CCc2ccccc2)nc2ccc(S(=O)(=O)N3CCCC3)cn12
Second: CCn1cc(-c2ccccc2)cc1C(=O)NCCN1CCCC1
The RP-LC retention time of the first is higher: 868 s for the first, 670 s for the second.

Going from O=C1C2N=NN(Cc3nc(-c4ccc(Br)cc4)no3)C2C(=O)N1c1ccccc1 (centres undefined) to Cc1ccc2oc(C(=O)Nc3ccnn3Cc3ccccc3)cc(=O)c2c1, the RP-LC retention time falls from 1030 s to 835 s.

First: O=C(c1ccc(Cl)cc1Cl)N1CC(c2nc(C3CC3)no2)C1
Second: O=C(c1cn2cc(Cl)ccc2n1)N1CCN(c2ccc(F)cc2)CC1
The RP-LC retention time of the first is lower: 818 s for the first, 876 s for the second.

Going from Cc1cccc(NC(=O)Cn2nc3c(Oc4cc(C)cc(C)c4)nccn3c2=O)c1 to CCCn1c(=O)c2cc(C(=O)Nc3cccc(C)c3)nn2c2ccccc21, the RP-LC retention time rises from 934 s to 1080 s.

Compared with CN1C(=O)C(C)(C(=O)Nc2ccccc2Cl)Oc2cccnc21 (centres undefined), COc1cc(NC(=O)c2ccccn2)ccc1Cl is higher in RP-LC retention time: 854 s for the first, 994 s for the second.

Compared with CCC(C(=O)NCCCN1CCN(CC)CC1)n1c2ccccc2c2cnn(C)c(=O)c21 (centres undefined), CC1CCN(c2nc3c(c(=O)n(Cc4ccccc4F)c(=O)n3C)n2C)CC1 is higher in RP-LC retention time: 594 s for the first, 1130 s for the second.

Going from CCCN1C(=O)C(NC(=O)c2ccc(F)cc2)(C(F)(F)F)C2=C1CC(C)(C)CC2=O (centres undefined) to CN(C)C(=O)c1n[nH]c2c1CN(C(=O)c1ccc(F)cc1)CC2, the RP-LC retention time falls from 952 s to 622 s.

Compared with Cc1ccsc1C(=O)N1C[C@@H]2CCCN3CCC[C@@H]([C@H]23)[C@H]1CCCC(=O)NCC1CC1, COc1ccc(NC(=O)N2C[C@@H](F)C[C@H]2C(=O)N2CCCCC2)c(OC)c1 is higher in RP-LC retention time: 612 s for the first, 687 s for the second.

Compared with CC(=O)Nc1c(C(=O)Nc2ccc(Cl)cc2)nnn1-c1ccccc1, COC(=O)c1ncn2c1C(=O)N(Cc1ccc(Cl)cc1)C(C)(C(=O)NCc1ccccc1)C2 (centres undefined) is lower in RP-LC retention time: 838 s for the first, 755 s for the second.

First: Cc1ccc2c(c1)N(S(C)(=O)=O)CCC(C(=O)Nc1cccc(Cl)c1C)O2 (centres undefined)
Second: CCC(=O)N1CCc2cc(N3CC(C(=O)Nc4ccccc4F)CC3=O)ccc21 (centres undefined)
The RP-LC retention time of the first is higher: 1020 s for the first, 741 s for the second.

Compared with COc1ccccc1N1CCN(C(=O)c2sc3cccc(F)c3c2OC)CC1, CCc1cccc(C)c1NC(=O)COc1cc(C)nc(N2CCN(c3ccccc3)CC2)n1 is lower in RP-LC retention time: 1050 s for the first, 946 s for the second.

Compared with Cc1nc(-c2cc(S(=O)(=O)Nc3cccc(Cl)c3F)c(C)s2)cs1, COc1ccc(-c2csc(C)n2)cc1S(=O)(=O)N(C)c1cccc(C)c1 is higher in RP-LC retention time: 1030 s for the first, 1050 s for the second.

Going from CC1CCN(C(=O)C2CCN(c3cncnc3N(C)C)CC2)CC1 to CN(C)C(=O)c1cc2c(s1)CCC(C(=O)NC1CCCCCC1)C2 (centres undefined), the RP-LC retention time rises from 624 s to 751 s.

Compared with CCCCc1ccc(NC(=O)Cn2cnc3c(sc4nc(-c5ccccc5)ccc43)c2=O)cc1, Cc1nc2c(sc3nc(-c4ccccc4)ccc32)c(=O)n1CC(=O)Nc1cccc(C(F)(F)F)c1 is lower in RP-LC retention time: 1260 s for the first, 1160 s for the second.

First: Cc1ccc(CNC(=O)c2nnc(-c3ccc(S(=O)(=O)N(C)C)cc3)o2)cc1C
Second: COc1ccc(-c2nnc(N3CCC(C(=O)NC(C)c4ccc(C)cc4C)CC3)o2)cc1 (centres undefined)
The RP-LC retention time of the first is higher: 947 s for the first, 934 s for the second.

Going from COc1ccc(-c2csc(Nc3ncccn3)n2)cc1OC to CCN1C(=O)COc2ccc(-c3csc(NC(=O)c4cccs4)n3)cc21, the RP-LC retention time rises from 824 s to 940 s.

Going from CCc1ccccc1NC(=O)Cn1nc2cc(C)nc(Nc3ccccc3)n2c1=O to Cc1cc2nn(CC(=O)Nc3cc(F)ccc3F)c(=O)n2c(Nc2ccc(F)c(C)c2)n1, the RP-LC retention time rises from 1050 s to 1100 s.

Compared with CCC(=O)Nc1ccc(-n2cnc(C(=O)N3CCc4ccccc4C3)c2)nc1, CCc1nc(-c2csc(S(=O)(=O)N3CCC(C(=O)N4CCc5ccccc5C4)CC3)c2)no1 is higher in RP-LC retention time: 721 s for the first, 1020 s for the second.

First: Cc1ccc(C(=O)NC2CCN(c3cc(-c4ccc(Cl)cc4)[nH]n3)C2)cc1 (centres undefined)
Second: CCn1cc(-c2ccc(C)cc2)cc1C(=O)NC(C)c1cccnc1 (centres undefined)
The RP-LC retention time of the first is higher: 821 s for the first, 736 s for the second.

First: CC(C)(C)NC(=O)N1CCOc2ccccc21
Second: CCc1ccccc1NC(=O)N(C)CC1CCOC1 (centres undefined)
The RP-LC retention time of the first is higher: 892 s for the first, 699 s for the second.

Compared with COc1ncccc1CNC(=O)c1cccs1, COc1ccc(CNC(=O)c2cn3cc(Cl)ccc3n2)cc1 is higher in RP-LC retention time: 694 s for the first, 811 s for the second.

Compared with O=C(CSc1ccc(N2CCN(c3ccc(F)cc3)CC2)nn1)NCc1ccco1, CCS(=O)(=O)Nc1ccc2nc(N3CCN(c4ccc(F)cc4)CC3)cc(C(=O)O)c2c1 is lower in RP-LC retention time: 873 s for the first, 653 s for the second.

Going from Cc1cc(C(=O)N2CCCn3ccnc3C2c2cnn(C)c2)c(C)o1 (centres undefined) to COC(=O)CNC(=O)N1CCCC1c1ccccc1C (centres undefined), the RP-LC retention time rises from 587 s to 737 s.

Compared with O=C(Nc1ccccc1-c1cn2c(CN3CCNCC3)csc2n1)c1cnc2ccccc2n1, O=C(NC1CCCCCC1)c1cccc(CN2C(=O)C3CCCN3C(=O)c3ccccc32)c1 (centres undefined) is higher in RP-LC retention time: 783 s for the first, 865 s for the second.

Compared with CCN1C(=O)COc2ccc(-c3csc(NC(=O)c4cccc(Br)c4)n3)cc21, CC(C)CC(=O)Nc1nc(-c2ccc3c(c2)NC(=O)CO3)cs1 is lower in RP-LC retention time: 1100 s for the first, 787 s for the second.

Going from COc1cccc(CN2C[C@@H]3C(=O)N(Cc4ccc5c(c4)OCO5)C(=O)[C@@H]3C2)c1OC to COc1ccc(NC(=O)NC2CCN(c3ccc(F)cc3)C2=O)c(OC)c1 (centres undefined), the RP-LC retention time rises from 704 s to 716 s.

Compared with Cc1nc(-c2ccc(Cl)cc2)oc1COC(C)(C)C(=O)O, CCN1C=C(C(=O)OCc2ccc(C)cc2)C(C)=NS1(=O)=O is higher in RP-LC retention time: 909 s for the first, 1030 s for the second.

Compared with Cc1ncc2c(n1)C[C@@H]1CC[C@H]2N1C(=O)COc1ccccc1, Cc1ccc2nc(-c3ccccc3F)cc(C(N)=O)c2c1 is higher in RP-LC retention time: 669 s for the first, 778 s for the second.

First: O=C(Nc1cc(F)ccc1F)c1cc2sccc2n1Cc1ccc(F)cc1
Second: NS(=O)(=O)c1ccc(CNC(=O)CCCn2cnc(-c3ccc(F)cc3)cc2=O)cc1
The RP-LC retention time of the first is higher: 1200 s for the first, 652 s for the second.

First: COc1ccc2[nH]c(=O)c(CCC(=O)N(C)CCc3ccncc3)cc2c1
Second: COC(=O)c1ccccc1NC(=O)N(Cc1cc(=O)[nH]c2ccccc12)C(C)C
The RP-LC retention time of the first is lower: 589 s for the first, 831 s for the second.

Going from COC(=O)c1cc(C2CC2)nc2c1c(=O)n(Cc1cccc(C)c1)c(=O)n2C to Cn1c(=O)c2nc(S(=O)(=O)CCC(=O)Nc3ccc(F)cc3F)n(C)c2n(C)c1=O, the RP-LC retention time falls from 1090 s to 737 s.

First: Cc1ccc(NC(=O)NCC(c2cccnc2)c2c[nH]c3ccccc23)cc1F (centres undefined)
Second: Cc1cc(C)nc(Nc2nc(C(=O)NCCOc3ccc(F)cc3)cs2)n1
The RP-LC retention time of the first is lower: 693 s for the first, 842 s for the second.

Compared with CCC(=O)Nc1c(C)noc1/C=C\c1ccc(S(=O)(=O)Nc2ccc(S(N)(=O)=O)cc2)cc1, Cc1nn2c(CNS(=O)(=O)c3ccccc3)c(-c3ccccc3)nc2s1 is higher in RP-LC retention time: 695 s for the first, 818 s for the second.

Compared with CCn1nc(C)c(CCNC(=O)Nc2ccccc2C(F)(F)F)c1C, O=C(NCc1ccccc1C(F)(F)F)C1CCCN(c2ncnc3nn(-c4ccc(F)cc4)cc23)C1 (centres undefined) is higher in RP-LC retention time: 672 s for the first, 754 s for the second.

Compared with O=C(Cn1c(=O)n(-c2ccc(F)cc2)c2ncccc21)NCCN1CCCCCC1, O=C(Cn1c(=O)c2cccn2c2ccc(F)cc21)NCCN1CCOCC1 is lower in RP-LC retention time: 625 s for the first, 592 s for the second.

Going from Cc1nnsc1C(=O)Nc1onc2c1CSC2 to CCN1CCCC1CNC(=O)c1nnc(Cc2cc(OC)c(OC)c(OC)c2)o1 (centres undefined), the RP-LC retention time falls from 666 s to 586 s.

First: CNC(=O)Oc1ccc(N(C)C)cc1C(C)C
Second: COc1ccc(Cl)cc1NC(=O)c1c(OC)cc(=O)n2c1CCCC2
The RP-LC retention time of the first is lower: 642 s for the first, 801 s for the second.

Going from COc1ccc(NC(=O)Cn2nc3nc(N4CCCCC4C)ccn3c2=O)cc1 (centres undefined) to COc1ccc(-c2ccnc3nc(-c4cccs4)nn23)cc1, the RP-LC retention time rises from 755 s to 892 s.

Compared with CCCn1nnc2cc(S(=O)(=O)N3CCCC(C(=O)N4CCCCCC4)C3)ccc21 (centres undefined), O=C(NCCCN1CCCC1)C1CCCN(c2nccnc2Sc2ccccc2)C1 (centres undefined) is lower in RP-LC retention time: 890 s for the first, 659 s for the second.

Going from Cc1cc(C)cc(-c2nnc(Cc3nc(-c4ccc5c(c4)OCO5)no3)o2)c1 to Cc1cccc(Nc2c(-c3ccc4c(c3)OCO4)nc3cnccn23)c1C, the RP-LC retention time falls from 1070 s to 928 s.

First: CCOC(=O)c1c(S(=O)(=O)N2CCC(C(=O)NCc3ccccc3OC)CC2)c(C)n(C)c1C
Second: CCOc1cc(C(=O)Nc2c(-c3ccccc3)nc3cc(C)ccn23)cc(OCC)c1OCC
The RP-LC retention time of the first is higher: 800 s for the first, 775 s for the second.

First: Cc1cc(N2CCCC2)nc(N2CCN(C(=O)CCC3CCCCC3)CC2)n1
Second: CCc1nc(-c2nnn(-c3ccc(F)cc3)c2C)no1
The RP-LC retention time of the first is lower: 825 s for the first, 874 s for the second.

Compound Cc1ccc(-c2csc(-c3cc4c([nH]c3=O)CC(C)(C)CC4=O)n2)cc1 has an RP-LC retention time of 994 s.

— the METLIN SMRT retention time set (Domingo-Almenara et al. 2019)
